The values below come from PMC5913254, “A novel in vitro metric predicts in vivo efficacy of inhaled silver-based antimicrobials in a murine Pseudomonas aeruginosa pneumonia model” (Scientific Reports, 2018).

The test system of data set [1] is 16HBE cells vs. PA M57-15. Briefly: Drug efficacy metric (DEM = LD50/MBC) using 16HBEs. Set-up: species or system human. Conditions: 16HBE-based DEM; one-way ANOVA with Tukey's test or unpaired t-test. The method, then:
16HBEs and HDFs grown to confluency (90–95%) as described above were sub-cultured, re-suspended in the appropriate medium, and seeded in wells of clear 96-well plate(s) at either 25,000 cells/well (16HBEs) or 15,000 cells/well (HDFs) with 100 µL of feeding media and incubated over 24 hours at 37 °C, 5% CO2, and 100% RH. The cells were then washed once with sterile phosphate buffered saline (PBS, pH = 7.4) and 100 µL of SCCs or the Ag-PPE-SCKs at various concentrations in OPTI-MEM® (Invitrogen) with 3.3% (v/v) DMSO, or without for the Ag-PPE-SCKs, was added to the cells. Next, 10 µL of alamarBlue® (Invitrogen) was added to each well and the plates were re-incubated for 24 h. Finally, the plates were measured for optical density at 570 and 600 nm with a spectrophotometer (POLARstar Omega, BMG Labtech or Cytation 5, BioTek). Untreated cells and media only (with alamarBlue®) were used as controls. […] The relative viabilities of the cells were determined as per the manufacturer’s instructions and using GraphPad Prism® software to generate a non-linear curve fit and interpolate the in vitro LD50 for each SCC. […] The DEM for each SCC was determined as the ratio of the molar LD50 and MBC concentrations (LD50/MBC).

Details of data set [2]: method as in PMID 23930200. Conditions: radiolabelled Ag+; cited from earlier work.
The test system of data set [3] is primary tracheal epithelial cells grown at air-liquid interface. More on the design: method as in PMID 20005242. Conditions: higher than 16HBE; cited from earlier work.
Data set [4] relates to Pseudomonas aeruginosa (PA M57-15). Briefly: Murine P. aeruginosa acute lung infection model, nebulized treatment. In kind it is in vivo, mouse. Conditions: for survival: 25 µmol Ag+ per dose nebulized, 5 doses, sham 9.1%; for survival / survival compared with sham treatment: 90:10 DH2O:DMSO, head-to-head of four SCCs; for clinical illness score (signs of illness): 25 µmol per dose nebulized with DMSO, SCC1 and SCC22: at 24 hours following infection, scorers not blinded; for survival compared with sham treatment: 25 µmol per dose nebulized. The method, then: Weight-matched male C57BL/6 J mice aged 6–8 weeks were used for all acute lung infection studies, which were approved by the University of Texas Southwestern Medical Center Institutional Animal Care and Use Committee (IACUC). All experiments were performed in accordance with relevant guidelines and regulations. Animals were housed in a barrier facility under pathogen-free conditions until they were inoculated with bacteria. The previously described clinical mucoid strain of Pseudomonas aeruginosa (PA M57-15) grown to mid-log phase (OD650 = 0.4) in Luria broth (LB) was used for all pulmonary infection experiments. The density of the bacterial culture (CFU/mL) was determined using serial dilution and plating for each experiment.
Mice were anesthetized by intraperitoneal administration of a ketamine (60 mg/kg) and xylazine (8 mg/kg) cocktail, intranasally inoculated using 75 µL of the bacterial inoculum (~1 × 10^6 CFU per mouse), and assigned randomly into treatment groups. Treatment was administered at 1-hour post-inoculation and again every 12 hours thereafter up to a 5th dose at 49 hours via nebulization of 5 mL of SCC solutions (containing 25 µmol total Ag^+ cation per dose for each SCC) or sham treatment. For the head-to-head comparison of unencapsulated SCC1, SCC22, SCC23, and SCC28, all SCCs were dissolved in a 90:10 (v/v) mixture of DH2O and DMSO; whereas, the sham treatment consisted of 90:10 DH2O: DMSO, but with dilute phosphate buffer (1 mM Na2HPO4, 0.2 mM KH2PO4) incorporated to provide tonicity for nebulization. For the dose-response studies with unencapsulated SCC1 and SCC22, 5 mL of SCCs dissolved in DH2O alone or 90:10 (v/v) mixture of DH2O and DMSO was nebulized to provide a total dose of 25, 50, or 100 µmol Ag^+ cation per dose for each SCC. Nebulization of the SCCs was achieved using a previously described experimental setup comprising of an Aeroneb Lab apparatus connected to a multi-dosing chamber. Throughout each study, the mice were monitored constantly and times of death were recorded. Every 24 hours, the mice were weighed and assigned cumulative clinical illness scores (0–6) based on their resting posture (0–2), condition of their fur (0–1), and overall activity level (0–3), with higher scores indicating more severe illness. The investigators assigning the scores were not blinded to the treatment group, which is a limitation of this study. The survival studies were all performed in duplicate with results pooled.
In vivo efficacy testing of the silver loaded, polyphosphoester, shell-crosslinked, knedel-like nanoparticles (Ag-PPE-SCKs) was carried out in a similar manner as with the SCCs. Ag-PPE-SCKs were suspended in 5 mL DH2O to a concentration of ~5 mM silver, as previously determined by mass spectrometry, and empty PPE-SCKs were suspended corresponding to the same mass of polymer. SCC1, a comparator treatment, was similarly dissolved to 5 mM in 5 mL DH2O, and sham consisted of the DH2O:phosphate buffer solution used in the other studies. The infection model was carried out as before; however, the Ag-PPE-SCKs and PPE-SCKs were dosed at 1 and 25 hours post-infection with the nanoparticles and given sham treatment at 13, 37, and 49 hours. SCC1 and sham treatment groups were dosed at all five time points. Survival studies were performed twice and pooled, though SCC1 was only used in one of the survival studies.

On the set-up of data set [5]: method as in PMID 20449175. Conditions: cited from earlier work.
The mark [6] stands for this setting: 100 µmol, DMSO-free formulation.

`CC(=O)[O][Ag][c]1n(C)c2c(c(=O)n(C)c(=O)n2C)[n+]1C` [SCC1]: in data set [1], the “DEM compared between formulations” value is “significantly higher DEMs than SCC23 and SCC28”. Besides, the “accumulation in the liver” value in data set [2] was “minimal accumulation”. Also, the “LD50 of primary cells relative to that of 16HBE” value in data set [3] is recorded as “about 2 log10”. This molecule also yielded a survival in data set [4] of 25%. Further, in data set [4], the “clinical illness score (signs of illness)” value (shortened to “clinical illness score”) is recorded as “significantly lower signs of illness”. For the same molecule, the “survival advantage compared with sham treatment” value worked out at 58% in data set [4] (25 µmol, DMSO-free formulation); 42% in data set [4] (25 µmol, with DMSO); 64% in data set [4] (50 µmol, DMSO-free formulation); 73% in data set [4] (setting [6]); 17% in data set [4] (100 µmol, with DMSO); 50% in data set [4] (~5 mM silver in 5 mL DH2O nebulized, Ag-PPE-SCKs dosed at 1 and 25 h, SCC1 at all five time points).

Turning to `CC(=O)[O][Ag][c]1n(CCCO)c(Cl)c(Cl)[n+]1C` [SCC22], the “DEM compared between formulations” value in data set [1] was “significantly higher DEMs than SCC23 and SCC28”. Also, the water solubility result in data set [5] was “up to 110 g/L”. In data set [4], the survival turned out to be 42%. Further, the “clinical illness score” value in data set [4] was “significantly lower signs of illness”. In addition, the “survival advantage compared with sham treatment” value is on record as 25% in data set [4] (25 µmol, DMSO-free formulation); 58% in data set [4] (25 µmol, with DMSO); 67% in data set [4] (50 µmol, DMSO-free formulation); 50% in data set [4] (50 µmol, with DMSO); 67% in data set [4] (setting [6]); “did not yield any survival advantage” in data set [4] (100 µmol, with DMSO).

`CC(=O)[O][Ag][c]1n(Cc2ccc3ccccc3c2)c(Cl)c(Cl)[n+]1Cc1ccc2ccccc2c1` [SCC23]: in data set [4], the “clinical illness score” value is on record as “appeared the most infirm at each time-point” and the “survival compared with sham treatment” value was “significantly lower survival”.

As to `CCCCCCn1c(Cl)c(Cl)[n+](Cc2ccc3ccccc3c2)[c]1[Ag][O]C(C)=O` [SCC28], in data set [4], the “survival compared with sham treatment” value is given as “significantly lower survival”.
